Patent US11111238B2, “Coumarin derivatives, processes for their preparation and uses thereof for the treatment of cancer” (Lead Discovery Center GmbH, priority 2017, dated 2021)

Columns and labels:
[1] = target: mitochondrial RNA-polymerase (POLRMT) (Mus musculus, UniProt Q8BKF1); assay: Homogeneous TR-FRET assay for mitochondrial transcription activity; format: biochemical; details: homogeneous TR-FRET assay according to Example 4; activity class
Outline: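 TR-FRET read-out (340 nm excitation, 665 nm emission) of a 407 bp transcript captured by Eu-streptavidin/biotin donor and ATTO647N acceptor DNA probes after EDTA stop. Transcription ran 2 h at RT with 500 μM […], mouse POLRMT/TFAM/TFB2M and LSP-plasmid template, after 10 min compound preincubation (10 μM or dilution series).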

[2] = system: human DLD-1 colon carcinoma xenograft; details: mouse, in vivo
Description: DLD-1 colon carcinoma cells (5×10^6 cells in 100 μL of PBS/Matrigel), isolated during exponential growth phase from in vitro cell culture, were transplanted s.c. into each female BALB/c nude mouse at day 0. Mice were kept under strictly controlled and standardized barrier conditions in IVC.
Sorafenib) (Nexavar®, which is an approved multi-kinase inhibitor/cytostatic from Bayer A G, was used as a positive control. Body weight and tumor volume (TV) were monitored two to three times per week.
Mice of groups 3, 4 and 5 were treated again at the end of the study period and blood samples were taken to generate plasma 1 h prior and 1 h post treatment. In addition, tumor and tissue samples were isolated, divided into two parts and snap frozen in liquid nitrogen. Mice of groups 1-5 were sacrificed at day 39. Gross autopsy was performed from all mice.

[3] = system: human A2780 ovary carcinoma xenograft; assay: Therapeutic effect on human A2780 ovary carcinoma xenograft in nude mice; format: in vivo, nude mice (female NMRI: nu/nu)
Description: In addition to the number of mice needed to build the groups necessary for the experiment, 8 additional mice were transplanted to have a sufficient number of satellite animals to improve stratification. Mice were stratified at day 7, when the mean tumor volume (TV) was 0.213±0.061 cm^3, (median TV=0.206 cm^3) into groups A-D with 8 mice each. 8 mice were excluded because of their tumor size.
Immediately before use, compound 14 was dissolved to obtain an injection solution to be sufficient for one week of treatment. The treatments were indicated as described in Table 6. […] Mean tumor […]±S.D. (RTV) was calculated. […] Mice of groups A, C and D were sacrificed at day 34 (QDx28 for times 28. Gross autopsy was performed from all mice.

Chain of mitochondrial RNA-polymerase (POLRMT) (Q8BKF1 42-1207): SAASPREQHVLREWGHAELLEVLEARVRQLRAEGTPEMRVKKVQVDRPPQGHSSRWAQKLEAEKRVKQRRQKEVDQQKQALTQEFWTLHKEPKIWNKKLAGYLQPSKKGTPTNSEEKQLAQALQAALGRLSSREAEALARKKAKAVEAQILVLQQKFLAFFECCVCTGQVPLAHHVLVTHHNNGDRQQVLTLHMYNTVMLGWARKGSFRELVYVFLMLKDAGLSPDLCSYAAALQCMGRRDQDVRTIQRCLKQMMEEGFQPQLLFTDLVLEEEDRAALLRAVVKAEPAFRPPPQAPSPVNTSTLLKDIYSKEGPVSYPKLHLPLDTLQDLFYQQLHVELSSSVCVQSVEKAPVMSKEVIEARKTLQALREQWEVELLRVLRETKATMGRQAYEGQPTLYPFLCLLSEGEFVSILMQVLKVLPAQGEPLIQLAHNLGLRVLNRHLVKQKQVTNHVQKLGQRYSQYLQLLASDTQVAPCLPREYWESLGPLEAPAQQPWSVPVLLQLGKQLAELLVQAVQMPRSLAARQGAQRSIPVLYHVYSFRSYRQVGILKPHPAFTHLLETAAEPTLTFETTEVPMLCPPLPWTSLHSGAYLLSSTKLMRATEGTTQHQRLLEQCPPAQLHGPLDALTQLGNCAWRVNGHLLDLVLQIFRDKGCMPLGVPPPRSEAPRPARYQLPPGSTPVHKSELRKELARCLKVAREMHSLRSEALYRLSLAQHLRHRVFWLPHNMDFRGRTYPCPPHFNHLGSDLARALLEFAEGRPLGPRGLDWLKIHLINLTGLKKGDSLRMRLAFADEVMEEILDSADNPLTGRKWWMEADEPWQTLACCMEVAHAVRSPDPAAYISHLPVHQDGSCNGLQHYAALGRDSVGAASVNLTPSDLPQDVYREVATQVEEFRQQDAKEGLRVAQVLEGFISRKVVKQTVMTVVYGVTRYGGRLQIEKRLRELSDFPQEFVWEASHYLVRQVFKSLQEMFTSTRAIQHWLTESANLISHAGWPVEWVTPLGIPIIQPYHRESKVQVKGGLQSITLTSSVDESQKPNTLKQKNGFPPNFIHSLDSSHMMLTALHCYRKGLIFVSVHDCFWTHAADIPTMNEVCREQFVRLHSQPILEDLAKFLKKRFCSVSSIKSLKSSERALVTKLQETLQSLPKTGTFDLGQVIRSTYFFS

## C[C@@H](Oc1ccc2c(-c3ccc(F)cc3Cl)cc(=O)oc2c1)C(=O)N1CCC[C@H](C(=O)O)C1 [Compound 14, (3S)-1-[(2R)-2-[4-(2-chloro-4-fluoro-phenyl)-2-oxo-chromen-7-yl]oxypropanoyl]piperidine-3-carboxylic acid]
[1]
  IC50: < 20 nM
[2]
  Autopsy at the end: no abnormal observations
  body weight loss: moderate body weight loss
  signs of toxicity: no signs of toxicity were observed
[3]; 30 mg/kg p.o. QD × 21
  Mean tumor weight: 0.629 g
  RTV (relative tumor volume at day 27 compared to D 7): 6.8
  Tumor weight, % of control: (75.5) %
[3]; 30 mg/kg p.o. QD × 21, day 27
  Tumor growth inhibition (D 27): Mean TV: 1.300 cm^3
[3]; 50 mg/kg
  optimum T/C value: 88.3%
[3]; 100 mg/kg
  optimum T/C value: 59.2%
[3]; 100 mg/kg p.o. QD × 28
  Mean tumor weight: 0.491 g
  RTV (relative tumor volume at day 27 compared to D 7): 5.1
  Tumor weight, % of control: (60,0) %
[3]; 100 mg/kg p.o. QD × 28, day 27
  Tumor growth inhibition (D 27): Mean TV: 0.715 cm^3
[3]; 200 mg/kg
  optimum T/C value: 24.9%
[3]; 200 mg/kg p.o. QD × 28
  Mean tumor weight: 0.141 g
  RTV (relative tumor volume at day 27 compared to D 7): 1.1
  Tumor weight, % of control: (16.99) %
[3]; 200 mg/kg p.o. QD × 28, day 27
  Tumor growth inhibition (D 27): Mean TV: 0.232 cm^3
[3]; A2780 xenograft, p.o. QD
  Tolerability: well tolerated
[3]; all doses
  Therapeutic effect: tumor growth inhibition: dose-dependent tumor growth inhibition
[3]; higher doses (100 and 200 mg/kg)
  Therapeutic effect: tumor growth inhibition: significantly more active regarding tumor growth inhibition
[3]; lowest dose (50 mg/kg)
  Therapeutic effect: tumor growth inhibition: no significant effect
[3]; mouse, in vivo
  Autopsy at the end: no abnormal observations
[3]; mouse, in vivo, po
  signs of toxicity: no signs of toxicity were observed
